Here are results for 2 substances from US20060073496A1, “Methods of identifying patients at risk of developing encephalitis following immunotherapy for Alzheimer's disease” (priority 2004, published 2006).

The nature of data set [1]: Phase I human trials of AN1792 (safety, tolerability, antibody responsiveness). The format is in vivo. The note with it: Phase I study. From the text: The U.K. trial enrolled about 80 patients and the U.S. trial enrolled about 24 patients with mild to moderate AD for the Phase I trials. […] Four of the participants developed signs of meningoencephalitis at an early phase of the clinical trial, and the trial was suspended. […] At the time the treatments were discontinued, the maximum number of immunization received was three (by 24 patients), with the majority of patients receiving two immunizations (274 patients) and two patients receiving one immunization. Ultimately, meningoencephalitis was reported in 18 of 300 immunized patients (Orgogozo (2003) supra).
Predictors of response were sought because the incidence of antibody responsiveness in the Phase I study was relatively low (48%), an incidence that would have more than doubled the number of patients required in a Phase II evaluation of efficacy (as measured by cognitive function) associated with anti-AN1792 antibody response. […] Consequently, blood samples were obtained from 123 treated U.S. patients (five of which developed meningoencephalitis) and 30 patients in the placebo group. Simultaneous analysis of the expression levels of approximately 22,000 sequences in each preimmune blood sample obtained from all consenting subjects was performed using the Affymetrix U133A GeneChip®. […]

For data set [2] the following is noted: cited from earlier work.
For data set [3], the system named is transgenic mouse models of cognitive impairment and amyloid plaque-associated CNS pathology. The note with it: cited from earlier work.
The conditions of data set [4]: cited from earlier work. The source holds these as a separate data set.
Data set [5] in a line: Phase IIa placebo-controlled trial of AN1792 with QS-21 adjuvant: meningoencephalitis and follow-up. The format is in vivo, human. The note with it: for Meningoencephalitis patients: number of samples in pharmacogenomic study. From the text:
The U.K. trial enrolled about 80 patients and the U.S. trial enrolled about 24 patients with mild to moderate AD for the Phase I trials.
Antibody responders were compared to placebo controls. […] Whole-trial analysis remains ongoing (Gilman, supra).
A total of 372 patients, 172 from the U.S. and 200 from the E.U., were enrolled in the clinical trial. […] Consent was obtained after approval by local institutional review boards.

The test system of a further data set is PBMCs. The data set is described as follows: Gene expression frequency (Affymetrix U133A) in PBMCs cultured overnight with AN1792 and immune adjuvant cocktail; association with encephalitis, IgG, IgM response, ApoE4 by ANOVA and GeneCluster; ratio to control culture. The format is cell-based, human. Particulars: 13 genes of Table 17, PBMCs cultured overnight, AN1792 10 μg/ml. From the text: Consent to the pharmacogenomic study was optional and obtained after approval by local institutional review boards in the U.S. (E.U. patients were not included in the pharmacogenomic study). Blood was collected from patients in the U.S. at the screening visit and was shipped overnight at room temperature to the Pharmacogenomic Laboratory in Andover, Mass. For each sample, the peripheral blood mononuclear cell (PBMC) fraction was purified by CPT fractionation, as described below, and 2×10^6 of these cells (the baseline sample, i.e., the first daughter sample for baseline measurements) were snap frozen; these represent cells that were not subject to in vitro culture (see. Example 1.1.3.1). The remaining cells were divided into four equal aliquots and cultured in vitro overnight in conditions described below. Cells were then harvested and snap frozen. […] The hypothesis behind this reasoning was that immunotherapeutic responsiveness may reflect a state of “preexisting readiness” to respond to AN1792, and this state may be reflected in the gene expression profile of PBMCs prior to immunotherapy. Accordingly, both AN1792-stimulated and control cultures were set up for each sample. Total RNA was purified from each sample, and RNA expression levels of each of 22,000 sequences were assayed, as described below. […]

A further data set has as its system PDAPP transgenic mouse. The data set is described as follows: PDAPP transgenic mouse efficacy studies (titer needed to lessen neuropathological progression). The format is in vivo. From the text: At present, the anti-AN1792 titer necessary to achieve a beneficial therapeutic effect in human AD is unknown. Whereas the PDAPP (platelet-derived growth factor-driven amyloid precursor protein) transgenic mouse develops several AD-like neuropathologies, the progression of pathology in this model may very well take a more aggressive course than in human AD, as the changes occur in months and the expression levels APP/Aβ are several fold higher than in nontransgenic species.

The next data set deals with AN1792. The data set is described as follows: Postimmunization maximum anti-AN1792 IgG and IgM titer / response group of treated patients. The format is in vivo, human. From the text: Relevant clinical data received from StatProbe, Inc. (Ann Arbor, Mich.) (pertaining to treatment group, maximum IgG titer for all visits, maximum IgM titer for all visits, ApoE4 type, and encephalitis status), along with demographic data and treatment group, were merged with the gene expression data by donor identification number (the randomization number that was assigned to each patient in the study).
The pharmacogenomic supplemental statistical analysis plan of this Example 1 defines IgG responders as having a maximum titer≧2200 at any time point. The maximum titer of partial IgG responders was >200<2200, and of nonresponders was ≦200. Patients with an IgM titer>100 at any time point are defined as IgM responders.
(Data from patients with maximum titers between 200 and 2200 were not used in the identification of statistically significant associations, but were analyzed once the statistical programs had identified genes of interest.)
Relevant clinical data pertaining to treatment group, maximum IgG titer for all visits, maximum IgM titer for all visits, encephalitis status, and demographic data were received from StatProbe, Inc. (Ann Arbor, Mich.). The clinical data were merged with the gene expression data by donor identification number.
Subjects were assigned to response groups based on postimmunization maximum titer during follow-up. For both IgM and IgG the response groups were: 1) nonresponders, (titer<200); 2) partial responders (200≦titer<2,200); and 3) responders (titer≧2200).

The conditions of data set [6]: cited from earlier work. This is another data set of the same source.
The subject of data set [7] is B and T cell effector function. Particulars: QS-21 adjuvanted immunotherapeutics in mice, rabbits and monkeys; cited from earlier work.
The conditions of data set [8]: rabbit, single IM injection, tritium-labeled QS-21; cited from earlier work.
The mark [9] stands for this setting: immunization with AN1792, transgenic mice.
The mark [10] stands for this setting: individual AN1792-treated patients with r^2 outlier samples (33, 22, 316, 765).
Setting [11] is: individual treated patients with post-CPT neutrophils >20%, one line per patient (17, 23, 36, 44, 271, 756), listed as Immunotherapy.
Where [12] appears, read: number of samples in pharmacogenomic study, Female, of 57 treated.
Where [13] appears, read: number of samples in pharmacogenomic study, Male, of 66 treated.
Setting [14] is: number of samples in pharmacogenomic study, Total, of 123 treated.

Values joined by “and” are separate entries in the source; they are usually repeats but may differ in a detail not shown here. Equal entries are not always repeated. “Also recorded” adds a separate entry of the source.

As for “AN1792: a peptide immunogen consisting of Aβ1-42, the section of amyloid recognized as a major component of AD-related plaques”, the “incidence of antibody responsiveness” value in [1] is on record as 48%. Also, in data set [2] (antibody responders compared to placebo controls, follow-up), the “CSF tau levels and battery of neuropsychological tests” value is “gave results favoring patients with a positive IgG titer”. Further, the “meningoencephalitis reported, patients of immunized patients” value in data set [2] (in vivo) is reported as 18 of 300. In addition, in [2] (one participant who died of causes unrelated to treatment), the “β-amyloid plaques in brain at autopsy” value is “significant areas of the brain lacked the β-amyloid plaques”. Further, in data set [3] (setting [9]), the cognitive function result is given as “improved cognitive function”; the “development of AD-like amyloid plaques, neuritic dystrophy, and gliosis” value was “inhibited the development of AD-like amyloid plaques, neuritic dystrophy, and gliosis”. Besides, the “performance in memory tests” value in data set [3] (mice treated with AN1792 versus placebo) is on record as “improved performance in memory tests”. Moreover, the “development of amyloid antibodies” value in data set [4] (Phase I trials, mild to moderate AD) is “a portion of the participants developed amyloid antibodies”. The “tolerability in human recipients” value in [4] (in vivo) is reported as “well tolerated”. The “number of patients who developed meningoencephalitis” value in data set [5] (E.U. patients) was 12. In data set [5] (U.S. patients), the “number of patients who developed meningoencephalitis” value came to 6. In addition, in data set [5] (Female), the Meningoencephalitis patients is recorded as 5. Also, the Meningoencephalitis patients in data set [5] (Total) came out at 5. Also, the “effect of AN1792 stimulation on gene expression frequency (AN1792-stimulated versus control culture)” value in the data set on PBMCs is on record as “decrease in gene expression frequency”. In the data set on PDAPP transgenic mouse, the “lowest titers that resulted in lessening of neuropathological progression” value is on record as 1-2,000. In the data set with AN1792 (setting [10]), the IgG response group result is reported as “Nonresponder (of nonresponders was ≦200); also recorded: IgG responder (IgG responders as having a maximum titer≧2200 at any time point)” and the IgM response group entry was “IgM responder (maximum IgM titer>100 (responders)); also recorded: Nonresponder (maximum IgM titer<100 (nonresponders))”. In addition, in the data set with AN1792 (setting [11]), the “Maximum IgG Titer” value was 50 (3×) and 4111 and 126 and 172; the “Maximum IgM Titer” value is 13275 and 957 and 28554. Moreover, in the data set on AN1792 (setting [12]), the “Treated IgG nonresponders” value worked out at 28, the “Treated IgG partial responders” value is 16, the “Treated IgG responders” value is 13 and the “Treated IgM nonresponders” value is listed as 16. The “Treated IgM partial responders” value in the data set with AN1792 (setting [12]) came to 21. For the same substance, in the data set with AN1792 (setting [13]), the “Treated IgG nonresponders” value is recorded as 42, the “Treated IgG partial responders” value is listed as 12, the “Treated IgG responders” value was 12 and the “Treated IgM nonresponders” value was 28. The “Treated IgM partial responders” value in the data set with AN1792 (setting [13]) turned out to be 18. Moreover, in the data set on AN1792 (setting [14]), the “Treated IgG nonresponders” value is on record as 70, the “Treated IgG partial responders” value is recorded as 28, the “Treated IgM nonresponders” value is 44 and the “Treated IgM partial responders” value worked out at 39. Also, the “Treated IgM responders” value in the data set with AN1792 (setting [14]) came out at 40. Besides, in the data set on AN1792 (treated U.S. patients of the pharmacogenomic study, Example 2), the “incidence of responsiveness (IgG titer>200), patients of treated patients” value is reported as 53 of 123.

For the substance QS-21, in data set [6] (rabbit toxicity studies), the “white blood cell counts and creatinine kinase” value was “Slight alterations in white blood cell counts (leukocytosis and leukopenia) and creatinine kinase”. Besides, the organ toxicity result in [6] (rabbit, single or multiple injections, QS-21 alone or combined with antigens) is listed as “no significant organ toxicity”. Also, in [7], the “effect on immune effector function” value was “improvement in B and T cell effector function”. Also, in [8], the distribution result was “highly concentrated in the lymph nodes draining the injection area” and the excretion entry was “Excretion occurs primarily through the kidneys”.
